Results from patent US20080022467A1, “Disazo dyes and their preparation and use” (ILFORD Imaging Switzerland GmbH, priority 2006, published 2008).

Tests used:
[1] = Light stability of printed patches (Weather-Ometer, xenon lamp); format: physicochemical; design: key to Light Stability (Class) on Recording Sheet A / Light Stability (Class) on Recording Sheet B / Light Stability (Class) on Recording Sheet C / Light Stability (Class) on Recording Sheet D / Light Stability (Class) on Recording Sheet E / Light Stability (Class) on Recording Sheet F / Light Stability (Class) on Recording Sheet G: A: excellent; B: good; C: satisfactory; D: unsatisfactory; conditions: 20 megalux hours; for Light Stability (Class) on Recording Sheet A: A: HP Printing Paper HPP 1122 (paper), 20° C., 50% relative humidity; for Light Stability (Class) on Recording Sheet B: B: HP Premium Plus (polymer based); for Light Stability (Class) on Recording Sheet C: C: ILFORD Galerie Smooth Glossy (nanoporous); for Light Stability (Class) on Recording Sheet D: D: ILFORD Printasia Premium Photo Glossy Paper (nanoporous); for Light Stability (Class) on Recording Sheet E: E: ILFORD Galerie Classic Gloss Paper (polymer based); for Light Stability (Class) on Recording Sheet F: F: EPSON Premium Glossy Photo Paper (nanoporous); for Light Stability (Class) on Recording Sheet G: G: CANON Photo Paper Pro PR-101 (nanoporous)
Method: (§1) The present invention, as far as it relates to recording liquids, is illustrated by the following examples using the disazo dyes of Table 1 according to the invention and dyes representing the state of the art. For each dye, 100 g of recording liquid were prepared by heating the necessary amount of dye (2.0 g-5.0 g), 6.0 g of ethylene glycol, 3.0 g of propylene-1,2-glycol, 3.0 g of 1-methyl-2-pyrrolidone, 0.3 g of an aqueous solution (50%) of Olin® 10G (available from Arch Chemicals Inc., Norwalk, USA), 0.3 g of Surfinol® 465 (available from Air Products and Chemicals Inc., Allentown, USA) and 0.1 g of Mergal® K 10N (available from Riedel-de-Haën, Seelze, Germany) together with water at a temperature of 50° C. under stirring for approximately 1 hour. The resulting solution was cooled down to a temperature of 20° C., its value of pH was adjusted to 7.5 and the solution was passed through a Millipore® filter of 0.3 μm pore diameter. The dye quantity was adjusted in such a way that the optical density of the printed image was similar for all dyes.
(§2) Homogeneously colored square patches with an approximate density of 1.40 were then printed, using these recording liquids, with an ink jet printer Canon BJC 8500 onto the following recording sheets: • A: HP Printing Paper HPP 1122 (paper) • B: HP Premium Plus (polymer based recording sheet) • C: ILFORD Galerie Smooth Glossy (nanoporous recording sheet) • D: ILFORD Printasia Premium Photo Glossy Paper (nanoporous recording sheet) • E: ILFORD Galerie Classic Gloss Paper (polymer based recording sheet) • F: EPSON Premium Glossy Photo Paper (nanoporous recording sheet) • G: CANON Photo Paper Pro PR-101 (nanoporous recording sheet)
The printed samples were irradiated using a Weather-Ometer® Ci35A (available from Atlas Material Testing Technology, Chicago, USA) with a 6500 W xenon lamp at a temperature of 20° C. and relative humidity of 50% until an illumination of 20 megalux hours was reached. The density loss was measured with a densitometer Spectrolino®. The percent density loss of initial density gives an indication of the light stability of the dyes on the printed recording sheet.

[2] = Stability against degradation by ozone of printed patches; format: physicochemical; design: key: A: excellent; B: good; C: satisfactory; D: unsatisfactory; conditions: ozone 1 ppm, 30° C., 50% relative humidity; for Resistance against Degradation by Ozone (Class) on Recording Sheet C: C: ILFORD Galerie Smooth Glossy (nanoporous); for Resistance against Degradation by Ozone (Class) on Recording Sheet D: D: ILFORD Printasia Premium Photo Glossy Paper (nanoporous); for Resistance against Degradation by Ozone (Class) on Recording Sheet F: F: EPSON Premium Glossy Photo Paper (nanoporous); for Resistance against Degradation by Ozone (Class) on Recording Sheet G: G: CANON Photo Paper Pro PR-101 (nanoporous)
Method: as §1, §2
The optical density of the colored square patches was measured with a Spectrolino® densitometer. Afterwards, the printed samples were stored for a predetermined time (for example 48 hours) in an ozone chamber, model 903 (available from Satra/Hampden, Great Britain) at a temperature of 30° C., a relative humidity of the air of 50% and an ozone concentration of 1 ppm at a velocity of the circulating, ozone containing air of 13 mm/s. After storage, the samples were re-measured. The density differences of these two measurements, expressed as per cent of the initial density, are an indication of the amount of dye loss due to the exposure to ozone.

| SMILES | Light Stability (Class) on Recording Sheet A [1] | Light Stability (Class) on Recording Sheet B [1] | Light Stability (Class) on Recording Sheet C [1] | Light Stability (Class) on Recording Sheet D [1] | Light Stability (Class) on Recording Sheet E [1] | Light Stability (Class) on Recording Sheet F [1] | Light Stability (Class) on Recording Sheet G [1] | Resistance against Degradation by Ozone (Class) on Recording Sheet C [2] | Resistance against Degradation by Ozone (Class) on Recording Sheet D [2] | Resistance against Degradation by Ozone (Class) on Recording Sheet F [2] | Resistance against Degradation by Ozone (Class) on Recording Sheet G [2] |
| --- | --- | --- | --- | --- | --- | --- | --- | --- | --- | --- | --- |
| O=S(=O)([O-])CCCSc1nc(Nc2ccc(N=Nc3cc(S(=O)(=O)[O-])c4cccc(S(=O)(=O)[O-])c4c3)cc2)nc(Nc2ccc(N=Nc3cc(S(=O)(=O)[O-])c4cccc(S(=O)(=O)[O-])c4c3)cc2)n1.[Na+].[Na+].[Na+].[Na+].[Na+] [Dye No. 10] | B | A | A | B | B | B | B | A | A | A | A |
| O=S(=O)([O-])CCNc1nc(Nc2ccc(N=Nc3cc(S(=O)(=O)[O-])c4cccc(S(=O)(=O)[O-])c4c3)cc2)nc(Nc2ccc(N=Nc3cc(S(=O)(=O)[O-])c4cccc(S(=O)(=O)[O-])c4c3)cc2)n1.[Na+].[Na+].[Na+].[Na+].[Na+] [Dye No. 11] | B | A | A | B | B | A | A | A | A | A | A |
| CN(CCS(=O)(=O)[O-])c1nc(Nc2ccc(N=Nc3cc(S(=O)(=O)[O-])c4cccc(S(=O)(=O)[O-])c4c3)cc2)nc(Nc2ccc(N=Nc3cc(S(=O)(=O)[O-])c4cccc(S(=O)(=O)[O-])c4c3)cc2)n1.[Na+].[Na+].[Na+].[Na+].[Na+] [Dye No. 14] | B | A | A | B | B | B | B | A | A | A | A |
| O=S(=O)([O-])CCCSc1nc(Nc2ccc(N=Nc3ccc4cc(S(=O)(=O)[O-])cc(S(=O)(=O)[O-])c4c3)cc2)nc(Nc2ccc(N=Nc3ccc4cc(S(=O)(=O)[O-])cc(S(=O)(=O)[O-])c4c3)cc2)n1.[Na+].[Na+].[Na+].[Na+].[Na+] [Dye No. 15] | B | A | B | B | B | B | B | B | A | A | A |
